Assay results published in ChEMBL document CHEMBL1139632, “Design and synthesis of new 2-substituted-5-(2-benzylthiophenyl)-1,3,4-oxadiazoles as benzodiazepine receptor agonists” (Bioorg Med Chem Lett, 2005).

Legend:
Mus musculus [1] = species on record: Mus musculus; assay: Lethal dose of in mice; format: functional
Mus musculus [2] = assay: Ability of the compound to protect mice against maximal electric shock (MES) induced convulsion in the presence of 10 mg/kg flumazenil; Range 54.9-102.9; format: functional
Mus musculus [3] = assay: Ability of the compound to protect mice against pentylenetetrazole induced convulsion in the presence of 10 mg/kg flumazenil; Ranges 60.1-135.9; format: functional
[4] = Lethal dose in mice; format: toxicity; settings: mouse, in vivo

With `Nc1nnc(-c2ccccc2SCc2ccc(Cl)cc2)o1` the LD50 (Mus musculus [1]) was greater than 300 mg/kg, the ED50 (Mus musculus [2]) was greater than 100 mg/kg and the ED50 (Mus musculus [3]) was greater than 100 mg/kg.
`Sc1nnc(-c2ccccc2SCc2ccccc2)o1` showed an LD50 (Mus musculus [1]) greater than 300 mg/kg, an ED50 (Mus musculus [2]) greater than 100 mg/kg and an ED50 (Mus musculus [3]) greater than 100 mg/kg.
With `CCSc1nnc(-c2ccccc2SCc2ccccc2)o1` the LD50 (Mus musculus [1]) was greater than 300 mg/kg, the ED50 (Mus musculus [2]) was greater than 100 mg/kg and the ED50 (Mus musculus [3]) was greater than 100 mg/kg.
Work on `Nc1nnc(-c2ccccc2SCc2ccc(F)cc2)o1` yielded an LD50 (Mus musculus [1]) greater than 300 mg/kg, an ED50 (Mus musculus [2]) greater than 100 mg/kg and an ED50 (Mus musculus [3]) of 29.1 mg/kg.
`CN1C(=O)CN=C(c2ccccc2)c2cc(Cl)ccc21` [DIAZEPAM] gave an ED50 (Mus musculus [2]) of 1.8 mg/kg and an ED50 (Mus musculus [3]) of 1.4 mg/kg.
Work on `c1ccc(CSc2nnc(-c3ccccc3SCc3ccccc3)o2)cc1` yielded an LD50 (Mus musculus [1]) greater than 300 mg/kg, an ED50 (Mus musculus [2]) greater than 100 mg/kg and an ED50 (Mus musculus [3]) greater than 100 mg/kg.
`Nc1nnc(-c2ccccc2SCc2ccccc2)o1` showed an ED50 (Mus musculus [2]) of 43.3 mg/kg, an LD50 [4] greater than 300 mg/kg and an ED50 (Mus musculus [3]) of 89.2 mg/kg.
Compound `CSc1nnc(-c2ccccc2SCc2ccccc2)o1` has an LD50 (Mus musculus [1]) greater than 300 mg/kg, an ED50 (Mus musculus [2]) greater than 100 mg/kg and an ED50 (Mus musculus [3]) of 93.2 mg/kg.
